From ChEMBL document CHEMBL1201862, “PubChem BioAssay data set” (2004)
The source made the active and inactive calls.

Legend:
[1] = HEp-2 cell cytotoxicity, dose response, cytotoxicity control for RSV inhibitor project, HTS (AID 2410); type: functional; conditions: human respiratory syncytial virus
Cytochrome P450 2C19 = Cytochrome P450 2C19 (Homo sapiens, UniProt P33261); assay: Cytochrome panel assay with activity outcomes. Panel member name: p450-cyp2c19 Compounds with AC50 equal or less than 10 uM are considered active; type: functional
Cytochrome P450 2C19, sequence (P33261 whole entry): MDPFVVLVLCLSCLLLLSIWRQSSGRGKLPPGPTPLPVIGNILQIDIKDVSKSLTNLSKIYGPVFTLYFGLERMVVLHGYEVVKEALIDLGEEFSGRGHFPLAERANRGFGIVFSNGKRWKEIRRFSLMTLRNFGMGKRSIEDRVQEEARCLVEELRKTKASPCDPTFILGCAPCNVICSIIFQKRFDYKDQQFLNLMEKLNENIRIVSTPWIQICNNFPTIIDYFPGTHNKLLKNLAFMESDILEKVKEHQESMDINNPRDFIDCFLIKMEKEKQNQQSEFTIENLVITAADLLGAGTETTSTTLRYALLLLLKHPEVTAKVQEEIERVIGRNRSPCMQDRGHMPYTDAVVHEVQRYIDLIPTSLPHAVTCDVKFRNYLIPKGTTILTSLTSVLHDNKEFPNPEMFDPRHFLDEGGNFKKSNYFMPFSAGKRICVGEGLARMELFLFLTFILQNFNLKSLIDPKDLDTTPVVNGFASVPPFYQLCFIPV

Cytochrome P450 2C9 = Cytochrome P450 2C9 (Homo sapiens, UniProt P11712)
Cytochrome P450 2C9, sequence (P11712 whole entry): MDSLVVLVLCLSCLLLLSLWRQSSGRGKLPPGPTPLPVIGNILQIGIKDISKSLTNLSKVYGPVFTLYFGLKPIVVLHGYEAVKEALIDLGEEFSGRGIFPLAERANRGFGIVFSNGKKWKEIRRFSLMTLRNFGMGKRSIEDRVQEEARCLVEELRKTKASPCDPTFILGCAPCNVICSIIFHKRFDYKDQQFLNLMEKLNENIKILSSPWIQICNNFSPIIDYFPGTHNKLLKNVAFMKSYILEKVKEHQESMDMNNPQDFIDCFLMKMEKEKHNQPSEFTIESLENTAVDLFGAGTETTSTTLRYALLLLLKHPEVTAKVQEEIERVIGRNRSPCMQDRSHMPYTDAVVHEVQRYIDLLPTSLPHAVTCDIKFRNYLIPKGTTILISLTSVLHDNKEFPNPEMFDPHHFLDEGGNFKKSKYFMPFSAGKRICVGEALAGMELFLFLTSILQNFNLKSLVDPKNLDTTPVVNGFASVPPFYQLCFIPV

Protein RecA = target: T1, Protein RecA (Mycobacterium tuberculosis, UniProt P9WHJ3); assay: Fluorescence Cell-Free Homogeneous Dose Retest to Identify Inhibitors of RecA-Intein Splicing Activity. [Related pubchem assays (depositor defined):AID2097, AID2223, AID489010, AID492950]; type: functional
T1 sequence (P9WHJ3 whole entry): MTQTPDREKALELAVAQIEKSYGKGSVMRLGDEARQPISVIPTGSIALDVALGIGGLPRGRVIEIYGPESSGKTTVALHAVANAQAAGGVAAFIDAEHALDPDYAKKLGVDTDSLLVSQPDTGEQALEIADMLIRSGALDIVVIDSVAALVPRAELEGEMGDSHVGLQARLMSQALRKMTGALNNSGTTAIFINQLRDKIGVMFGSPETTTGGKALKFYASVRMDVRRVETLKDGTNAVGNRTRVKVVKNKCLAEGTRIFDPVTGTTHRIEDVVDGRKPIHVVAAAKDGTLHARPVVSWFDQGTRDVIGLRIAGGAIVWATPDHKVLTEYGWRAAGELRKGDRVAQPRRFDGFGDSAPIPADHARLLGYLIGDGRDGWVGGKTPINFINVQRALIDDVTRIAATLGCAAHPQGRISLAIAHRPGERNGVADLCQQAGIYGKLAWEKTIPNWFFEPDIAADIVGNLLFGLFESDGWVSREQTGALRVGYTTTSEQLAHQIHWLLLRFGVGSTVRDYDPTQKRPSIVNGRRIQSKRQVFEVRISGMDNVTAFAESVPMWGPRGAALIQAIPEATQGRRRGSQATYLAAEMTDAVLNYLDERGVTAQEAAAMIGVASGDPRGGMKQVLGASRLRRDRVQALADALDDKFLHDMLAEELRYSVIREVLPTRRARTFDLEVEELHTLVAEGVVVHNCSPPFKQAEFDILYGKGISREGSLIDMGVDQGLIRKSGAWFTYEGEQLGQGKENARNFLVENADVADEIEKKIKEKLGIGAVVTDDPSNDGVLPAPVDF

[2] = target: T2, Replicative DNA helicase DnaB (Mycobacterium tuberculosis, UniProt P9WMR3); assay: DnaB intein splicing inhibitors, dose response, biochemical, cell-free fluorescence (AID 449749); type: functional
T2 sequence (P9WMR3 whole entry): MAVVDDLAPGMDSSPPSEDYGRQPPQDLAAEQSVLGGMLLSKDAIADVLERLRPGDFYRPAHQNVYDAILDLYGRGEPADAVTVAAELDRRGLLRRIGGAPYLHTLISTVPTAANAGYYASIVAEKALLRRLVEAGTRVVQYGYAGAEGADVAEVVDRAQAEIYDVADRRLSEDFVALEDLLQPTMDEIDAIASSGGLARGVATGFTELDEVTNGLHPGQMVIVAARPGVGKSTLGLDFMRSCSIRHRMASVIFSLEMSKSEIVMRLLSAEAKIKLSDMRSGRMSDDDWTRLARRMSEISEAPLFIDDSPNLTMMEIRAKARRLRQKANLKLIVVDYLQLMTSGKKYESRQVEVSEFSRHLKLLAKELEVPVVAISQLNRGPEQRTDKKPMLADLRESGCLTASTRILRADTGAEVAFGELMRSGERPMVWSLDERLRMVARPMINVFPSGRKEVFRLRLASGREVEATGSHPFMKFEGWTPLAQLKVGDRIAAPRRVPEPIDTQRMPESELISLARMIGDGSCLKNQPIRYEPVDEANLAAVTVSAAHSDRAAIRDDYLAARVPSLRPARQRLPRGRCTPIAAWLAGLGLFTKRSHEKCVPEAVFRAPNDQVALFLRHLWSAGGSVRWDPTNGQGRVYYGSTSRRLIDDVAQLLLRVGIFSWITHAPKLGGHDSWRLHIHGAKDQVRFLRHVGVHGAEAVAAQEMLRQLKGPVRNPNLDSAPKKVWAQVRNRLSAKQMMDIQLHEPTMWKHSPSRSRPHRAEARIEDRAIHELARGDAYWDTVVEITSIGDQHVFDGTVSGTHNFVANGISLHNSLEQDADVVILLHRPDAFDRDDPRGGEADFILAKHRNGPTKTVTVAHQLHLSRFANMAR

Cytochrome P450 2D6 = Cytochrome P450 2D6 (Homo sapiens, UniProt P10635);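 note: CYP2D6 member of a cytochrome P450 panel assay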
Cytochrome P450 2D6, sequence (P10635 whole entry): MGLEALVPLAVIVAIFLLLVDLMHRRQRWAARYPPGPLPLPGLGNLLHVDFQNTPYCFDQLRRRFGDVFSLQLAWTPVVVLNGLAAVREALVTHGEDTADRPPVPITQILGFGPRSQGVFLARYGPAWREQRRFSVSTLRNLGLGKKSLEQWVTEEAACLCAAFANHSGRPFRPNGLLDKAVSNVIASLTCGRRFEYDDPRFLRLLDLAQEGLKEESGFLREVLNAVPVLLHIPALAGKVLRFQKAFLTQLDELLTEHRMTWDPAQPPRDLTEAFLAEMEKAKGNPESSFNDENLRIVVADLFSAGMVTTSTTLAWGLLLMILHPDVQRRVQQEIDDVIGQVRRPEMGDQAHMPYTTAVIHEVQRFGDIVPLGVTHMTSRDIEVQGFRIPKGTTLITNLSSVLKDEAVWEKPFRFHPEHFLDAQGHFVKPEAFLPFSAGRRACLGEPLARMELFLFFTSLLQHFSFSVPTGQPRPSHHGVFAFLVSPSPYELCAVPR

[3] = target: T3, Corticotropin-releasing factor receptor 2/Corticotropin-releasing factor-binding protein (Homo sapiens, UniProt P24387+Q13324); assay: Dose Response confirmation of uHTS hits for small molecule antagonists of the CRF-binding protein and CRF-R2 receptor complex.; type: functional; conditions: read-out: IC50_Mean
T3 sequence (Q13324 whole entry): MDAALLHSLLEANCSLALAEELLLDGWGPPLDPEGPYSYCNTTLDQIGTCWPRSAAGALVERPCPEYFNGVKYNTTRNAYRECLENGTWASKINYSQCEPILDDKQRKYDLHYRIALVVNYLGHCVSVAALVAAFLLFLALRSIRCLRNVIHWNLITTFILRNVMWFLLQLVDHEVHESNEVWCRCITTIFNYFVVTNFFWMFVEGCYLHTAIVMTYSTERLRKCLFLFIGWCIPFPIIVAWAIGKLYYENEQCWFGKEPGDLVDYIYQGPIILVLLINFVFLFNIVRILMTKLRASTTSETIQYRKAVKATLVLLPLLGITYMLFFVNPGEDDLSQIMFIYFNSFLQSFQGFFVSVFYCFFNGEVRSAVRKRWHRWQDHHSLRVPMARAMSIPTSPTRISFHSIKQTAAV
T3 sequence (P24387 whole entry): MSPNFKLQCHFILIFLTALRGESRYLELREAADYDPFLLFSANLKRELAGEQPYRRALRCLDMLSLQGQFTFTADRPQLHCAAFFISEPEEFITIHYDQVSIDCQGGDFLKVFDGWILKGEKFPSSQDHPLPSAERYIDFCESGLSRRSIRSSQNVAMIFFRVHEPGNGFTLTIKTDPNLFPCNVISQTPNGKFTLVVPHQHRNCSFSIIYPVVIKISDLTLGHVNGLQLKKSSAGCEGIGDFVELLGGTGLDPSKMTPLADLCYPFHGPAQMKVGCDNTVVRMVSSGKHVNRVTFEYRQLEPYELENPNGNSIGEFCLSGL

[4] = target: T3, Corticotropin-releasing factor receptor 2/Corticotropin-releasing factor-binding protein; assay: activators of CRF receptor 2 with binding protein – uHTS hits, confirmation (AID 602473); type: functional; conditions: read-out: EC50_Mean
[5] = inhibitors of intracellular T. cruzi replication, confirmation, NIH3T3 host cells, beta-gal luminescence (AID 2044); type: functional, cell-based;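 note: intracellular parasites grown in NIH/3T3 mouse fibroblasts as host cells; luminescent beta-galactosidase reporter signal from transgenic T. cruzi replicating inside host cells; inhibitors lower the luminescence signal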
[6] = cytotoxicity toward NIH3T3 fibroblasts, dose response, counter-screen, cell-based, ATP luminescence, mouse fibroblasts (AID 2010); type: functional;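 note: cells exposed to compound for about 90 hours before reading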

With `Cc1cc(N)n2ncc(-c3cccc(Br)c3)c2n1` the CC50 [1] was > 50 µM (active).

For `CC(=O)c1ccccc1OCCCOc1cccc2cccnc12`, the CC50 [1] was 21.4 µM (active).

In the case of `Cc1nc2cnc(Oc3cccc(Cl)c3)nc2n(Cc2ccc(F)cc2)c1=O`, the AC50 (Cytochrome P450 2C19; read-out: AC50) is reported as 31.6 µM (inconclusive).

For `Cc1cccc(CNc2ncnc3ccc(-c4ccccc4C#N)cc23)c1`, the AC50 (Cytochrome P450 2C9) was 0.501 µM (inconclusive).

With `O=C1C(Cl)=C(N2CCCCC2)C(=O)N1c1ccccc1Cl` the EC50 (Protein RecA) was 2.45 µM (active) and the AC50 [2] was 4.64 µM (active).

With `Cc1cc(C)n(-c2ccc(Cl)c(C(=O)O)n2)n1` the AC50 (Cytochrome P450 2C9) was 4.47 µM (inconclusive) and the AC50 (Cytochrome P450 2C19; read-out: AC50) was 6.31 µM (inconclusive).

In the case of `O=P(O)(COc1ccccc1)COc1ccccc1`, the AC50 (Cytochrome P450 2C9) is reported as 14.1 µM (inconclusive) and the AC50 (Cytochrome P450 2C19; read-out: AC50) is reported as 28.2 µM (inconclusive).

With `C#CCOc1ccc2c3c(c(=O)oc2c1)CCCC3` the CC50 [1] was 43.7 µM (active).

For `Cc1ccccc1-c1nc(CN(C)C(C)c2ccon2)c(C)o1` (stereo not drawn), the EC50 (Protein RecA) was 1.15 µM (active) and the AC50 [2] was 3.11 µM (active).

In the case of `CN1CCN(c2ccc([N+](=O)[O-])cc2C(=O)N2CCOCC2)CC1`, the AC50 (Cytochrome P450 2C19) is reported as “inconclusive”.

For `C=CCc1cccc(CNc2nc3ccccc3n2C)c1O`, the CC50 [1] was 25.9 µM (active).

For `N#Cc1cccc(-c2cncnc2NCc2cccs2)c1`, the AC50 (Cytochrome P450 2D6) was 31.6 µM (inconclusive) and the AC50 (Cytochrome P450 2C9) was 0.501 µM (inconclusive).

For `COc1ccc(-c2cc(C(F)(F)F)nc(N3CCCCCC3)n2)cc1`, the CC50 [1] was 28.2 µM (active).

With `O=C(CCn1c(=O)[nH]c2ccsc2c1=O)Nc1ccc(F)c(F)c1` the AC50 (Cytochrome P450 2C9) was 2.82 µM (inconclusive).

In the case of `O=C(CNS(=O)(=O)c1cccs1)NCCc1ccc(Cl)cc1`, the IC50 [3] is reported as > 47.1 µM (inactive) and the EC50 [4] is reported as > 53 µM (inactive).

For `Cc1ccc(Nc2c(O)ncnc2O)cc1`, the IC50 [3] was > 47.1 µM (inactive) and the EC50 [4] was > 53 µM (inactive).

With `CC(C(=O)Nc1sccc1C(N)=O)N1C(=O)C2CC=CCC2C1=O` (stereo not drawn) the IC50 [3] was > 47.1 µM (inactive) and the EC50 [4] was > 53 µM (inactive).

In the case of `CN(C)c1ccc(-c2nc(NCCc3cnc[nH]3)c3ccccc3n2)cc1`, the AC50 (Cytochrome P450 2C9) is reported as 0.794 µM (inconclusive).

For `COc1ccc(C(=O)N2CCCCC2)cc1S(=O)(=O)Nc1ccccc1`, the AC50 (Cytochrome P450 2C9) was 14.1 µM (inconclusive).

For `COCCNc1nc(-c2ccccc2Cl)nc2ccccc12`, the AC50 (Cytochrome P450 2C19; read-out: AC50) was 0.0316 µM (inconclusive).

With `O=C(O)c1ccc([N+](=O)[O-])c2c1C(=O)c1ccccc1C2=O` the EC50 (Protein RecA) was 6.78 µM (active) and the AC50 [2] was 29 µM (active).

In the case of `O=C(Cc1cc(O)n[nH]1)N/N=C/c1cccc2ccccc12`, the EC50 (Protein RecA) is reported as 0.694 µM (active) and the AC50 [2] is reported as 4.55 µM (active).

With `Cc1nc(N2CCOCC2)c(C#N)c(C)c1Br` the CC50 [1] was 30.6 µM (active).

In the case of `CC(C)C(NS(=O)(=O)c1cccs1)C(=O)Nc1nc(C(C)(C)C)cs1` (stereo not drawn), the CC50 [1] is reported as 13.5 µM (active).

In the case of `COc1cccc(C(=O)NCCN2CCOCC2)c1`, the AC50 (Cytochrome P450 2C9) is reported as 3.55 µM (inconclusive) and the AC50 (Cytochrome P450 2C19; read-out: AC50) is reported as 20 µM (inconclusive).

With `O=C1Nc2ccccc2/C1=N/NS(=O)(=O)c1ccc(C(=O)O)cc1` the AC50 (Cytochrome P450 2C19) was “inconclusive”.

For `Cc1n[nH]c2c1C1(CCOCC1)C(C#N)=C(N)O2`, the EC50 (Protein RecA) was 2.83 µM (active) and the AC50 [2] was 3.57 µM (active).

For `CCOP(=O)(OCC)c1cc(CC)ccc1O`, the IC50 [3] was > 47.1 µM (inactive) and the EC50 [4] was > 53 µM (inactive).

With `CC(C)(C)c1ccccc1OCCN1CCCC1` the EC50 [5] was 1.35 µM (active), the AC50 (Cytochrome P450 2C19; read-out: AC50) was 35.5 µM (inconclusive) and the EC50 [6] was > 60 µM (not active).

In the case of `CC1CCN(CCCn2c(=S)[nH]c3ccc(N4CCOCC4)cc3c2=O)CC1`, the AC50 (Cytochrome P450 2D6) is reported as 22.4 µM (inconclusive), the AC50 (Cytochrome P450 2C9) is reported as 20 µM (inconclusive) and the AC50 (Cytochrome P450 2C19) is reported as “inconclusive”.

In the case of `CC1=C(C)CC2(SC1)C(=O)N(c1ccccc1)N=C2N` (stereo not drawn), the EC50 (Protein RecA) is reported as 3.4 µM (active) and the AC50 [2] is reported as 10.3 µM (active).

For `NC(=O)[C@H]1CC2(CC(c3cccc(NC(=O)c4ccccc4)c3)=NO2)CN1C(=O)[C@H]1CCC(=O)N1` (stereo partly drawn), the AC50 (Cytochrome P450 2C19) was “inconclusive”.

With `CC(C)(C)C(=O)Nc1ccc(C(=O)OC2CCCCC2)cc1` the CC50 [1] was 37.3 µM (active).

With `O=[N+]([O-])c1cc(-c2nnc(C34CC5CC(CC(C5)C3)C4)o2)cc([N+](=O)[O-])c1` the CC50 [1] was > 50 µM (active), the EC50 [5] was 0.77 µM (active) and the EC50 [6] was > 60 µM (not active).

With `Cc1cc(C)c2nc(NC(=O)c3ccc4c(=O)n5c(nc4c3)CCCCC5)sc2c1` the IC50 [3] was > 47.1 µM (inactive) and the EC50 [4] was > 53 µM (inactive).

With `C[N@+]1(CCC(=O)c2ccccc2)CC[C@H]2CC[C@H](C2)C1` the AC50 (Cytochrome P450 2C19) was “inconclusive”.

In the case of `COC1=C(C)C(=O)c2c(c(COC(N)=O)c3n2C[C@@H]2[C@@H]3N2C)C1=O` (stereo partly drawn), the AC50 (Cytochrome P450 2C19; read-out: AC50) is reported as 0.794 µM (inconclusive).
